Experimental data published in patent US20100286254A1 (ANTISOMA RESEARCH LIMITED, priority 2007, published 2010).
Counter-ions that a name gives are not always drawn.

Assays:
[1] = Dynamic Vapour Sorption (DVS) experiment; format: physicochemical; conditions: 25° C.
Description: DVS: Dynamic vapour sorption measurements were carried out with an instrument of Surface Measurement Systems (http:www.smsuk.co.uk). The weight change of the investigated sample is monitored while the relative humidity is changed over a range from 0% r.h. to 95% r.h. at a change rate of 5% per hour.
About 10 mg of a mixture of forms B and C is placed into a suitable sample pan and investigated with a dynamic vapour sorption apparatus of Surface Measurement Systems, DVS-1 (series 1000) using software version DVS win SP2, V3.01 at 25° C. The initial relative humidity is 50% and the initial mass is 100%, thereafter the humidity is increased to 95% and kept at this level for 2 hours, then the humidity is decreased to 0%, and kept at 0% during 10 hours, then raised again to 95%. Change rates are always 5% per hour.

Hygroscopicity = format: physicochemical; conditions: sodium salt
human tumours = conditions: monotherapy, cited from earlier work
[2] = test system: syngeneic murine tumours or human tumour xenografts; conditions: mouse, in vivo; cited from earlier work
[3] = Storage under controlled relative humidity (solid form stability); format: physicochemical
Description: A high relative humidity is here defined as a relative humidity of about 70 to 90%. […] In particular, the water content can be well controlled and remains constant, over time.

[4] = 52% relative humidity, ambient temperature, about two weeks

## Cc1ccc2c(=O)c3cccc(CC(=O)[O-])c3oc2c1C.[Na+] [mixture of forms B and C, DMXAA sodium salt]
[1]; at 95% r.h.
  water adsorbed: about 1%
[1]; scanning r.h. to 0%
  water release: all the water is released

## Cc1ccc2c(=O)c3cccc(CC(=O)O)c3oc2c1C [amorphous DMXAA sodium salt, DMXAA sodium salt, reference compound]
Hygroscopicity
  hygroscopicity: very hygroscopic

## Cc1ccc2c(=O)c3cccc(CC(=O)O)c3oc2c1C [form L, DMXAA sodium salt]
Hygroscopicity
  hygroscopicity: hygroscopic

## Cc1ccc2c(=O)c3cccc(CC(=O)O)c3oc2c1C [DMXAA]
Human tumours; phase I trials
  tumour responses: few tumour responses were achieved
Human tumours; well-tolerated doses, dynamic MRI
  tumour blood flow: significant reduction in tumour blood flow
[2]
  antivascular activity, tumour blood flow: prolonged inhibition of tumour blood flow leading to extensive regions of haemorrhagic necrosis

## Cc1ccc2c(=O)c3cccc(CC(=O)O)c3oc2c1C [form E, DMXAA sodium salt]
Hygroscopicity
  hygroscopicity: hygroscopic

## Cc1ccc2c(=O)c3cccc(CC(=O)O)c3oc2c1C [form F, DMXAA sodium salt]
[3]; [4]
  change of the crystal form on storage: did not lead to a change of the crystal form
  water content after storage: about 3%
[3]; 75% relative humidity at 40° C.
  form conversion on storage: transforms into form B within a few days
[3]; open container, 75% relative humidity, about 34 hours
  form conversion on storage: transformed into form B
Hygroscopicity
  hygroscopicity: hygroscopic
